Measurements published in patent US20100056622A1, “Methods of Using Ramelteon to Treat Patients Suffering from a Variety of Neurodegenerative Diseases” (priority 2008, published 2010).

Assays:
[1] = test system: patient with Probable Dementia with Lewy Bodies; assay: Case report Example 1: ramelteon in a patient with Probable Dementia with Lewy Bodies; assay type: in vivo, human; conditions: 2 week follow-up
Procedure: A person with a 4 year history of Probable Dementia with Lewy Bodies was treated with ramelteon as follows. The patient presented for treatment was experiencing poor sleep (i.e., interval insomnia with only 3-4 hours of sleep at night), fatigue, weight loss, poor concentration, anhedonia, irritability, social withdrawal, but no depressive mood or depressive cognitions. The patient would nap for an hour in the afternoons, consistent with Excessive Daytime Somnolence (EDS), nocturnal insomnia, or dopamine agonist therapy. They admitted to some anxiety daily in the afternoons lasting up to an hour, but had no somatic symptoms with this. Confusion was mild, but occurred once daily, and they had hallucinated only once, 6 weeks previously. There was significant nocturnal incontinence associated with the insomnia, with 4 or more episodes per night. The Neuropsychiatric Inventory Questionnaire (NPI-Q) was administered with the result being a score of 11 (delusions 1, agitation 2, irritability 1, nighttime behaviors 6, appetite 1). The […] al. Apathy Scale was also administered with the result being a score of 31. Ramelteon was administered beginning at 8 mg at bedtime and increased after 3 days to 16 mg by mouth each night at bedtime. At a 2 week follow-up, the patient began sleeping 7 hours each night, with only 2 episodes of incontinence at night.

[2] = test system: patient with Probable Parkinson's Disease Dementia; assay: Case report Example 2: ramelteon in a patient with Probable Parkinson's Disease Dementia (person); assay type: in vivo, human; conditions: after 2 weeks
Procedure: A person with a 10 year history of Probable Parkinson's Disease Dementia was treated with ramelteon as follows. The patient presented for treatment was experiencing dementia EDS, REM behavior disorder (i.e., RBD, manifest in acting out their dreams while asleep), and symptoms of Parkinson's disease (e.g., bradykinesia, rigidity, resting tremor, and postural instability). […] After 2 weeks of treatment with ramelteon, 8 mg each night at bedtime, scores had improved on the ESS from 19 to 16, DRS-2 (DRS-2 Conceptualization score) improved from 35 to 38, Memory from 24 to 25, Total from 138 to 141, and Trails (Trails B 68 to 60, Trails B-Trails A 36 to 28). Thus, treatment with ramelteon led to demonstrable improvement in excessive daytime sleepiness, concept formation (i.e., similitudes and differences), memory (i.e., spontaneous recall, factual knowledge, and recognition), overall cognition, and measures of executive function.

[3] = test system: patient with Probable Parkinson's Disease Dementia; assay: Case report Example 3: ramelteon in a patient with Parkinson Disease and Probable Parkinson's Disease Dementia (person); assay type: in vivo, human; conditions: 10 weeks
Procedure: A person with an 18 year history of Parkinson Disease with subsequent development of Probable Parkinson's Disease Dementia was treated with ramelteon. The patient presented was experiencing dementia (i.e., memory loss, inattention, and dysexecutive syndrome), initial and interval insomnia, and typical features of Parkinson's disease (i.e., bradykinesia, rigidity, resting tremor, and postural instability). The patient was started on ramelteon, 8 mg each night at bedtime, and was seen again 10 weeks later. DRS-2 Initiation (i.e., categorical naming reflecting temporal lobe function) improved from a score of 31 to 34, Controlled Oral Word Association Test S Subtest (i.e., naming reflecting frontal lobe function) from 14 to 17, CLOX 1 (i.e., reflecting executive function) from 6 to 8, and ADCS-ADL disability (i.e., reflecting ability to perform activities of daily living) from 43 to 47. Thus, treatment with ramelteon was associated with improvements in temporal and frontal lobe—related naming, executive function, and overall ability to cognitively function.

[4] = target: melatonin-1 receptor (Homo sapiens, UniProt P48039); conditions: cited from earlier work
melatonin-1 receptor, sequence (P48039 whole entry): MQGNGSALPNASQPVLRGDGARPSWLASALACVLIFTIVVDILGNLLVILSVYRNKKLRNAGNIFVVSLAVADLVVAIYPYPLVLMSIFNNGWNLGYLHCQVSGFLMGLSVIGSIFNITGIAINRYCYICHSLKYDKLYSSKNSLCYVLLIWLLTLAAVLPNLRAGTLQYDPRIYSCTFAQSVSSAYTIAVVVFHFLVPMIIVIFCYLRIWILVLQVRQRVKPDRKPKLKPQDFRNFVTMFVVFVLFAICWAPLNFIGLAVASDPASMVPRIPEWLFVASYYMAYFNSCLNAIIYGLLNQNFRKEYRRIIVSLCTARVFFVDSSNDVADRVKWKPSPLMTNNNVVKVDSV

[5] = target: T1, melatonin-2 receptor (Homo sapiens, UniProt P49286); conditions: cited from earlier work
T1 sequence (P49286 1-362): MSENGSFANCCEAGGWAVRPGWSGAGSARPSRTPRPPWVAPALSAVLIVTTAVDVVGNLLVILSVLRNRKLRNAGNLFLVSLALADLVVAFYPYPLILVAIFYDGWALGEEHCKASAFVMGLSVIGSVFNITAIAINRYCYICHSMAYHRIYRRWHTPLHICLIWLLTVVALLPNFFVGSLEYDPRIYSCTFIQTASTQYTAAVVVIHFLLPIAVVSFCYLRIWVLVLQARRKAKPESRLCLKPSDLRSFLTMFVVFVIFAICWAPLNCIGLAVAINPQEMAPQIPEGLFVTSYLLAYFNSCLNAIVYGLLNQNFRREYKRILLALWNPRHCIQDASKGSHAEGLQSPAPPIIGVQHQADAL

[6] = test system: mouse cerebellar granule cells; conditions: cited from earlier work
[7] = test system: liver function after hemorrhagic shock and reperfusion; conditions: rats; cited from earlier work

Structure (SMILES): CCC(=O)NCC[C@@H]1CCc2ccc3c(c21)CCO3 [ramelteon, (S)—N-[2-(1,6,7,8-tetrahydro-2H-indeno-[5,4-b]furan-8-yl)ethyl]propionamide]
- MMSE scores [1]: did not show a change
- afternoon anxiety [1]: no longer of concern
- anhedonia [1]: absent
- appetite [1]: improved
- confusional episodes, intensity [1]: reduced in intensity
- hallucinations [1]: continued in remission
- irritability [1]: markedly better
- social withdrawal [1]: absent
- sleep each night ([1]; 8 mg then 16 mg by mouth at bedtime, before treatment 3-4 hours): 7 h
- NPI-Q appetite ([1]; before treatment 1): 1
- NPI-Q delusions ([1]; before treatment 1): 0
- NPI-Q agitation ([1]; before treatment 2): 0
- episodes of incontinence at night ([1]; before treatment 4 or more episodes per night): 2 episodes
- NPI-Q nighttime behaviors ([1]; before treatment 6): 1
- NPI-Q score (total) ([1]; before treatment 11): 2
- Apathy Scale (Starkstein et al.) score ([1]; before treatment 31): 37
- confusional episodes, frequency ([1]; before treatment once daily): half as frequent
- DRS-2 Memory score ([2]; 8 mg at bedtime, before treatment 24): 25
- DRS-2 Conceptualization score ([2]; 8 mg at bedtime, before treatment 35): 38
- Trails B-Trails A ([2]; 8 mg at bedtime, before treatment 36): 28
- Trails B ([2]; 8 mg at bedtime, before treatment 68): 60
- DRS-2 Total score ([2]; 8 mg at bedtime, before treatment 138): 141
- Epworth Sleepiness Scale (ESS) score ([2]; 8 mg each night at bedtime, before treatment 19): 16
- CLOX 1 ([3]; 8 mg at bedtime, before treatment 6): 8
- Controlled Oral Word Association Test S Subtest ([3]; 8 mg at bedtime, before treatment 14): 17
- ADCS-ADL activities of daily living score ([3]; 8 mg at bedtime, before treatment 43): 47
- DRS-2 Initiation score ([3]; 8 mg each night at bedtime, before treatment 31): 34
- agonist potency relative to melatonin [4]: more potent at these sites than melatonin itself
- agonist potency relative to melatonin [5]: more potent at these sites than melatonin itself
- concentrations of BDNF in neurons [6]: increased concentrations of BDNF in neurons
- recovery of the liver after reperfusion [7]: improved recovery of the liver after reperfusion
